Data from US5344850A, “Topical composition for preventing or treating acne vulgaris” (Takasago International Corporation, priority 1992, dated 1994).
Values after ≈ are worked out from the molar mass of the structure shown. Where two headings read alike, the source gives them in different places.

Columns and labels:
[1] = system: Staphylococcus epidermidis, Pseudomonas aeruginosa, Corynebacterium species, Aerobacter kleps and Candida albicans; conditions: in words; cited from earlier work
Propionibacterium acnes [2] = conditions: cited from earlier work
Propionibacterium acnes [3] = experiment: Minimum growth inhibitory concentration (MIC) on Propionibacterium acnes (Test Example 1); type: cell-based, Propionibacterium acnes (ATCC 6919); conditions: for MIC: Cutibacterium acnes; for Antibacterial activity (in words): inhibition of proliferation of Propionibacterium acnes, as compared with eugenol
Method: The minimum growth inhibitory concentrations (MIC) of the compounds (2) and (3) as obtained in Production Examples 1 and 2 on Propionibacterium acnes were determined in the following manner.
59.0 g of a GAM (Gifu anaerobic medium) bouillon medium (manufactured by Nissui Pharmaceutical Co., Ltd.) was dissolved in 1 liter of purified water and a test compound was added thereto so as to give a concentration of 100 μg/ml. A serial 2-fold dilution of the mixture thus obtained was made with the medium followed by sterilization. 10 ml portions of the mixture were pipetted into test tubes and each inoculated with 0.1 ml of Propionibacterium acnes (ATCC 6919) which had been pre-incubated to give a cell concentration of 1×10^8 cells/mi. After stationary incubation under anaerobic conditions for 48 hours, the turbidity was measured at a wavelength of 660 nm. […] For comparison, MIC of eugenol, which had been known as having a relatively strong antibacterial activity, on Propionibacterium acnes was determined.

[4] = Propionibacterium acnes, GAM bouillon medium, anaerobic, 48 hours, turbidity at 660 nm, read-out: MIC

Structure (SMILES)	MIC (Propionibacterium acnes [3]; [4]) [mg/L]	Antibacterial activity (in words) (Propionibacterium acnes [3])	further results
CC(C)=CCCC(C)=CCCC(C)=CCO [farnesol, 3,7,11-trimethyldodeca-2,6,10-trien-1-ol]	–	–	growth inhibitory effect [1]: exhibits a growth inhibitory effect; antibacterial activity, used alone (Propionibacterium acnes [2]; farnesol used alone): little activity; antibacterial activity, used in combination (Propionibacterium acnes [2]; in combination with phenyl hydroxyalkyl ether and glycerol monolaurate): exhibits an antibacterial activity
C=CCc1ccc(O)c(OC)c1 [eugenol]	50 (≈ 304 µM)	–	–
CC(C)=CCCC(C)=CCCC(C)=CCCC(C)O (centres unmarked) [compound (3), 6,10,14-trimethyl-5,9,13-pentadecatrien-2-ol]	1.56 (≈ 5.9 µM)	intense antibacterial activity	–
CC(C)CCCC(C)CCCC(C)CCCC(C)O (centres unmarked) [compound (2), 6,10,14-trimethylpentadecan-2-ol]	–	intense antibacterial activity	MIC (Propionibacterium acnes [3]; 48 h): 3.13 mg/L (≈ 11.6 µM)
